According to patent US20170014372A1, “Drug Combination for Treatment of Proliferative Diseases” (ECOLE POLYTECHNIQUE FEDERALE DE LAUSANNE (EPFL), priority 2014, published 2017):

How the values were obtained:
[1] = test system: 786-0 cells; experiment: Cell viability assay on 786-0; format: cell-based, human; conditions: 72 h
Experimental: (§1) Cell viability assay was performed as previously described (31). Cells were seeded in a 96-well culture plate at a density of 2.5-10×10^3 cells/well, depending on cell type (ECRF24 in gelatin-coated plates), 24 h prior to the application drug combinations or control conditions (in a total volume of 50 μl) and were subsequently incubated for an additional 72 h. Cell viability was assessed using the CellTiter-Glo luminescent cell viability assay (Promega, Madison, Wisc., USA).

[2] = test system: ECRF24 cells; experiment: Cell viability (proliferation) assay on endothelial cells ECRF24; format: cell-based, human; conditions: for single-drug dose required for the same EC proliferation inhibition as the best combination (90% inhibition): assuming linear dose-response curves; for theoretical dose reduction in combination: vs single-drug dose for 90% inhibition
Experimental: (§2) Cell viability assay was performed as previously described (31).
The feedback system control (FSC) technique was employed as previously described (13, 33, 34). In the research presented here, the FSC technique is implemented using the differential evolution (DE) algorithm (35) and two separate optimization were performed with the cellular outputs of ECRF cell viability (proliferation) and migration (wound healing) assays. 19 drug combinations were tested per iteration and 11 iterations were performed in each optimization, or until a plateau in the best output value was reached.
Drug mixing was performed as follows: stock solutions were first used to prepare the highest concentration of each compound and lower concentrations were prepared through serial dilutions of the higher concentrations. All drug concentrations were prepared 9 times more concentrated than desired to account for dilution by other compounds (or medium when a compound was not included). The drug mixtures were prepared directly before applying drug combinations to cells by first adding the required amount of medium for each combination (i.e.
all compounds which are included at concentration 0) and then adding the required concentration of each compound, always in the same order. The cells were incubated in 50 μl of each mixture for 72 h in the proliferation assay or for 6 h in the migration assay.
Second order linear regression models were generated using the data obtained from each optimization. Data was modeled using real concentration values and both concentration values and proliferation output data was transformed using the z-score function in Matlab. The negative values of the 2nd-order terms regression coefficients corresponds to synergistic effect, the positive value to the antagonistic effect. Appropriate data and model verification methods were implemented to ensure the accuracy and reliability of predictions made based on these models. The main assumptions of linear regression models were verified (i.e. weak exogeneity, linearity, constant variance, independence of errors, and lack of multicolinearity). As the presence of multicolinearity was indicated in a few of the regressors in the second order linear regression model of the proliferation data (based on the analysis of variance inflation factors (VIF) and condition indices), a stepwise linear regression was also performed to isolate the most important regressors and remove instabilities in the regression analysis due to multicolinearity. Drug interactions were additionally analyzed using the Compusyn software (14), where a ‘combination index’ (CI) is calculated for drug combinations and CI values less than […] indicate synergistic drug combinations, while CI-values greater than 1 indicate antagonistic drug.

[3] = test system: panAKT, pMAPK and ribosomal protein S6 (pS6); experiment: Western blot of panAKT, pMAPK and pS6 in ECRF24; format: cell-based, human; conditions: 5 hrs incubation
Experimental: Cells were seeded in a 6-well plate (30×10^4 cells per well) 24 h prior to the removal of medium and application of selected drug combinations or DMSO control (total volume of 2 mL). After an additional 5 hrs of incubation at the given conditions, medium was removed, cells were washed with PBS and 100 μl of buffer lysate was added (prepared on ice and composed of RIPA, protease inhibitors (1:1000) and sodium orthovanadate (1:1000)). Wells were then scratched and cell lysate solution was removed and put on ice for 10 min. Cell supernatant was isolated after centrifuging solution at 12,000 min^−1 for 15 min. A solution of blue buffer (4×)+u-Page Reducing Agent (10×) was added to supernatant and samples were kept at 95 ° C. for 5 min.
The samples were then run in an electrophoresis gel for 90 min at 125 V. The monoclonal antibodies included phosphorylated Akt (473), total Akt, phosphorylated MAPK, and phosphorylated S6 (235/236 hamster, Cell Signaling). Cell extracts were prepared by detergent lysis [50 mmol/L Tris-HCl (pH 8.0), 150 mmol/L NaCl, 1% NP40, 0.5% sodium deoxycholate, 0.1% SDS containing protease (Sigma, St. Louis, Mo.) and phosphatase (Sigma) inhibitor cocktails]. The soluble protein concentration was determined by micro-BSA assay (Pierce, Rockford Ill.). Protein immunodetection was done by electrophoretic transfer of SDS-PAGE separated proteins to nitrocellulose, incubation with antibody and chemiluminescent second step detection (PicoWest; Pierce). Protein expression was quantified in Fiji by densitometry as previously described (39, 40). Results were expressed as a relative ratio between samples and control.

[4] = test system: A2780 cells; experiment: Cell viability assay on A2780; format: cell-based, human; conditions: 72 h
Experimental: as §1

[5] = test system: A2780 tumors grafted on the CAM; experiment: Human ovarian carcinoma (A2780) grafted on the chicken chorioallantoic membrane (CAM); format: in vivo, chicken embryo; conditions: for tumor growth inhibition, single compound at high concentration: high concentration: 29 μg/kg (4) and 615 μg/kg (8); for tumor growth inhibition, single compound at low concentration: low concentration: 2.9 μg/kg (4) and 307 μg/kg (8)
Experimental: Human ovarian carcinoma tumors were implanted on the CAM as previously described (36). Briefly, fertilized chicken eggs were incubated in a hatching incubator (37° C. and relative humidity 65%), as previously described (37). […] Treatment began when vascularized tumors were visible, 3 days after tumor implantation (EDD10). Drug combinations were prepared as done in in vitro assays, were pre-mixed and administered as a 20 μL intravenously injection. […] On the last day of experiment CAM experiments, tumors were resected, fixed overnight in zinc fixative solution as previously described (38). […] Primary antibody incubation was performed overnight (DIA-310; Dianova, Hamburg, Germany).

[6] = test system: HUVEC; experiment: Cell viability assay on HUVEC; format: cell-based, human; conditions: 72 h
Experimental: as §2

[7] = test system: LS174T tumors; experiment: Human colorectal adenocarcinoma (LS174T) grafted intradermally in Swiss nu/nu mice; format: in vivo; conditions: treated daily; for tumor growth inhibition: doses per Table 2
Experimental: Mice were randomized into groups and treated with sham (CTRL), individual drugs, 4+8+9 (M1 and M2), and 4+8 (M3), respectively (Table 2) Individual drugs inhibited tumor growth only by approximately 0% and 6% (4) at 5 and 15 mg/kg, 10% (8) or 23% (9), whereas combinations M1 and M2 by 76±14% and 25±17%, respectively (FIG. 5D). On the last day of the experiment (FIG. 5E) tumors were resected, and paraffin embedded for immunohistochemical staining for endothelial cells (CD31). In M1-treated tumors microvessel density was approximately 80% lower then in sham-treated tumors (CTRL), FIG. 5F.
FIG. 5. Inhibition of A2780 (A-C) or LS174T (D-F) tumor growth in vivo by the best mixtures optimized. (A) Growth curve of A2780 tumors grafted on the CAM showing tumor volume with respect to treatment day. Treatment was administered i.v. on days 1 and 2 and tumors were excised on the 8th (last) day of experiment. Data points represent the average tumor volume as a percentage of the final control volume per experiment. (B) Figures show representative tumors of sham treated (CTRL) and F drug combination. (C) The microvessel density profiles are expressed as the number of vessels per mm^2 and presented as a percentage of a control. (D) LS174T grafted intradermally in Swiss nu/nu mice and treated daily with single compounds or mixtures. Data points represent the average tumor volume as a percentage of the final control volume per experiment and error bars represent the SEM; N=3-9. *p <0.05 and **p<0.01. ‘S’ indicates synergy (Cl≦0.8). (E) The microvessel density profiles are expressed as the number of vessels per mm^2 and presented as a percentage of a control. […] The bar in the upper right image represents 0.5 mm and is valid for both images. Data points represent average values of 2 independent experiments and error bars represent SEM; N=3-7; **p<0.01.

[8] = test system: renal cell carcinoma (Caki-1) cells; conditions: combinations of Table 4
Experimental: as §1

Compound: CNC(=O)c1ccccc1Sc1ccc2c(/C=C/c3ccccn3)n[nH]c2c1 [compound 3, axitinib]
- inhibition of 786-0 cell viability [1]: approx. 30%

Compound: C#Cc1cccc(Nc2ncnc3cc(OCCOC)c(OCCOC)cc23)c1 [compound 4, erlotinib]
- single-drug dose required for the same EC proliferation inhibition as the best combination (90% inhibition) [2]: approximately 50 μM
- theoretical dose reduction in combination [2]: 5 fold
- pAkt protein [3]: slight decrease
- inhibition of A2780 cell viability [4]: approximately 40%
- tumor growth inhibition, single compound at high concentration [5]: ~20%
- tumor growth inhibition, single compound at low concentration [5]: approximately 6%
- inhibition of HUVEC viability [6]: more sensitive
- tumor growth inhibition at 5 mg/kg ([7]; 5 mg/kg): approximately 0%
- tumor growth inhibition at 15 mg/kg ([7]; 15 mg/kg): ~6%

Compound: Cc1ccc(C(C)C)cc1.[Cl][Ru]([Cl])[PH]12CN3CN(CN(C3)C1)C2 [compound 8, RAPTA-C]
- single-drug dose required for the same EC proliferation inhibition as the best combination (90% inhibition) [2]: ~2000 µM
- theoretical dose reduction in combination [2]: 11 fold
- pAkt protein [3]: slight decrease
- tumor growth inhibition, single compound at high concentration [5]: ~20%
- tumor growth inhibition, single compound at low concentration [5]: approximately 6%
- tumor growth inhibition [7]: ~10%

Compound: Cn1c(=O)n(-c2ccc(C(C)(C)C#N)cc2)c2c3cc(-c4cnc5ccccc5c4)ccc3ncc21 [compound 9, BEZ-235]
- single-drug dose required for the same EC proliferation inhibition as the best combination (90% inhibition) [2]: ~0.12 µM
- theoretical dose reduction in combination [2]: 6 fold
- pS6 expression [3]: nearly complete inhibition
- pS6 expression ([3]; listed as BEZ235): inhibited
- tumor growth inhibition, single compound at its applied concentration ([5]; limiting compound, dose used in the combinations): approximately 35%
- inhibition of HUVEC viability [6]: more sensitive
- tumor growth inhibition [7]: ~23%

Compound: AZD4547
- inhibition of Caki-1 cell proliferation / synergy [8]: effective and synergistic inhibition
